From PubChem BioAssay AID1963440 (Molecular Pharmacology Branch, DTP, NCI, 2024)
“And” between values parts separate entries of the source, which are not always exact repeats. Equal entries are not always repeated.

Tested on: NCI-H1417 complex spheroids, growth % test/control
Assay: Anticancer human tumor NCI-H1417 cell line growth inhibition [Asc];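 also: spheroids exposed to compounds for 7 days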;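 as to viability, T/C: 100% = DMSO vehicle control wells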
Conditions: for viability, T/C: stronger effect = lower value
Summary of the method: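 Complex solid-tumor spheroids incorporating human endothelial and mesenchymal stem cells received single agents or combinations over half-log dilution ranges anchored to clinical Cmax.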

[1] = curve of first compound, second compound 0.1 µM
[2] = curve of first compound, second compound 0.316 µM
[3] = curve of first compound, second compound 1 µM
[4] = curve of first compound, second compound 3.16 µM
[5] = curve of first compound, second compound 10 µM
[6] = second compound 0.1 µM, first compound 0.0316 µM
[7] = second compound 0.1 µM, first compound 0.1 µM
[8] = second compound 0.1 µM, first compound 0.316 µM
[9] = second compound 0.1 µM, first compound 1 µM
[10] = second compound 0.316 µM, first compound 0.0316 µM
[11] = second compound 0.316 µM, first compound 0.1 µM
[12] = second compound 0.316 µM, first compound 0.316 µM
[13] = second compound 0.316 µM, first compound 1 µM
[14] = second compound 1 µM, first compound 0.0316 µM
[15] = second compound 1 µM, first compound 0.1 µM
[16] = second compound 1 µM, first compound 0.316 µM
[17] = second compound 1 µM, first compound 1 µM
[18] = second compound 3.16 µM, first compound 0.0316 µM
[19] = second compound 3.16 µM, first compound 0.1 µM
[20] = second compound 3.16 µM, first compound 0.316 µM
[21] = second compound 3.16 µM, first compound 1 µM
[22] = second compound 10 µM, first compound 0.0316 µM
[23] = second compound 10 µM, first compound 0.1 µM
[24] = second compound 10 µM, first compound 0.316 µM
[25] = second compound 10 µM, first compound 1 µM

SMILES	IC50 [1]	IC50 [2]	IC50 [3]	IC50 [4]	IC50 [5]	viability, T/C [6]	viability, T/C [7]	viability, T/C [8]	viability, T/C [9]	viability, T/C [10]	viability, T/C [11]	viability, T/C [12]	viability, T/C [13]	viability, T/C [14]	viability, T/C [15]	viability, T/C [16]	viability, T/C [17]	viability, T/C [18]	viability, T/C [19]	viability, T/C [20]	also measured
C=C(F)C(=O)N1CCN(c2nc(OCC3CCCN3C)nc3c2CCN(c2cccc4cccc(Cl)c24)C3)CC1CC#N (configuration not stated) + Cc1c(S(C)(=O)=O)c(-c2cc(F)cc(N3CCN(c4ccc(NS(=O)(=O)c5ccc(NC(CCN6CCC(C(=O)OCCCP(=O)(O)O)CC6)CSc6ccccc6)c(S(=O)(=O)C(F)(F)F)c5)cc4)CC3)c2)c(-c2ccc(Cl)cc2)n1C(C)C	1240 nM	< 31.6 nM	< 31.6 nM	< 31.6 nM	< 31.6 nM	75.7%	80%	67.9%	61.1%	43.5%	46%	35.5%	14%	12.3%	9.05%	5.54%	2.95%	2.93%	2.78%	2.82%	viability, T/C (second compound 0.1 µM, first compound 3.16 µM): 1.57%; viability, T/C (second compound 0.1 µM, first compound 10 µM): 0.85%; viability, T/C (second compound 0.316 µM, first compound 3.16 µM): 0.94%; viability, T/C (second compound 0.316 µM, first compound 10 µM): 0.12%; viability, T/C (second compound 1 µM, first compound 3.16 µM): 0.15%; viability, T/C (second compound 1 µM, first compound 10 µM): 0.11%; viability, T/C [21]: 2.57%; viability, T/C (second compound 3.16 µM, first compound 3.16 µM): 0.11%; viability, T/C (second compound 3.16 µM, first compound 10 µM): 0.12%; viability, T/C [22]: 2.01%; viability, T/C [23]: 2.86%; viability, T/C [24]: 3.34%; viability, T/C [25]: 1.29%; viability, T/C (second compound 10 µM, first compound 3.16 µM): 0.21%; viability, T/C (second compound 10 µM, first compound 10 µM): 0.19%
CCN1CCN(Cc2ccc(Nc3ncc(F)c(-c4cc(F)c5nc(C)n(C(C)C)c5c4)n3)nc2)CC1 + Cc1c(S(C)(=O)=O)c(-c2cc(F)cc(N3CCN(c4ccc(NS(=O)(=O)c5ccc(NC(CCN6CCC(C(=O)OCCCP(=O)(O)O)CC6)CSc6ccccc6)c(S(=O)(=O)C(F)(F)F)c5)cc4)CC3)c2)c(-c2ccc(Cl)cc2)n1C(C)C	> 1000 nM	< 3.16 nM	< 3.16 nM	< 3.16 nM	< 3.16 nM	82.2%	69.5%	66.6%	58.1%	44.7%	28.9%	24%	21%	10.6%	7.35%	6.95%	2.98%	2.77%	2.85%	2.68%	viability, T/C (second compound 0.1 µM, first compound 0.00316 µM): 88.6%; viability, T/C (second compound 0.1 µM, first compound 0.01 µM): 83.6%; viability, T/C (second compound 0.316 µM, first compound 0.00316 µM): 47.8%; viability, T/C (second compound 0.316 µM, first compound 0.01 µM): 45.8%; viability, T/C (second compound 1 µM, first compound 0.00316 µM): 14.4%; viability, T/C (second compound 1 µM, first compound 0.01 µM): 12%; viability, T/C (second compound 3.16 µM, first compound 0.00316 µM): 2.92%; viability, T/C (second compound 3.16 µM, first compound 0.01 µM): 2.69%; viability, T/C [21]: 3.02%; viability, T/C (second compound 10 µM, first compound 0.00316 µM): 2.2%; viability, T/C (second compound 10 µM, first compound 0.01 µM): 2.36%; viability, T/C [22]: 2.21%; viability, T/C [23]: 1.72%; viability, T/C [24]: 2.26%; viability, T/C [25]: 2.79%
C#Cc1c(F)ccc2cc(O)cc(-c3ncc4c(N5CC6CCC(C5)N6)nc(OCC56CCCN5CC(F)C6)nc4c3F)c12 (configuration not stated)																					viability, T/C (compound 0.0316 µM): 93% and 102% and 110%; viability, T/C (compound 0.1 µM): 89.5% and 97.4% and 102%; viability, T/C (compound 0.316 µM): 94.3% (2×) and 101%; viability, T/C (compound 1 µM): 106% and 98.8% and 97.6%; viability, T/C (compound 3.16 µM): 96.5% and 100% and 101%; viability, T/C (compound 10 µM): 72.5% and 96.5% and 83%; IC50 (curve of compound): > 10000 nM
